Assay results: patent US20100222269A1, “IMPROVED DERIVATIVES OF AMYLIN” (priority 2007, published 2010)
Positions of bridges follow the written chain, without caps; N, C: chain ends. Non-standard residues stand in square brackets, D forms with d. Residues, ends and D or L forms follow the SMILES beside them. *: point of attachment. C20 diacid = O=C(O)CCCCCCCCCCCCCCCCCCC(=O)*; AEEA = NCCOCCOCC(=O)O

Molecular target: T1, Amylin 3(a) receptor (human calcitonin receptor (CTa) with RAMP-3) (Homo sapiens, UniProt O60896+P30988)
T1 construct: expressed in transfected cells; host or cells: BHK570 (baby hamster kidney) cells, stably transfected, with CRE-luciferase reporter
T1 sequence (O60896 24-148): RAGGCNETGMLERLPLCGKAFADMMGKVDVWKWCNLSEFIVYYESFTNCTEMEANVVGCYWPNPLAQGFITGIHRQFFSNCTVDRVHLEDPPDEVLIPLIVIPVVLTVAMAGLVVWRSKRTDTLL
T1 sequence (P30988 25-474): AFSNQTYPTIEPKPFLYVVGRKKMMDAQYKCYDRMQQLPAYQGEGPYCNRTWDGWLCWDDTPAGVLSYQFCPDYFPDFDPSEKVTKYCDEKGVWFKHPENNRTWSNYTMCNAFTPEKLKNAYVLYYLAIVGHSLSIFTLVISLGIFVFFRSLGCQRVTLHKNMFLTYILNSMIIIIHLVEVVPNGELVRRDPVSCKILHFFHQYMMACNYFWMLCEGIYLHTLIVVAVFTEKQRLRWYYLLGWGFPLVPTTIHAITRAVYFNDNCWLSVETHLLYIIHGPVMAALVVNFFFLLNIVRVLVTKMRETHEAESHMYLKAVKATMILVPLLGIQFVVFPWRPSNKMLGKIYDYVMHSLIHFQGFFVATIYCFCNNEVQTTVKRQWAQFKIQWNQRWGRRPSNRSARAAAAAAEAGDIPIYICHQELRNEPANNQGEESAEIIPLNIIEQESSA
Test: Amylin luciferase assay (CRE-luciferase reporter in BHK Amylin 3(a)//CRE-luc cells)
Type: cell-based
Conditions: BHK570 cells with human calcitonin receptor (CTa), RAMP-3 and CRE-luciferase reporter; 4 hours incubation; read-out: Potency luciferase assay
Outline: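 BHK570 cells stably expressing human calcitonin receptor (CTa), RAMP-3 and a CRE-luciferase reporter, about 20.000 cells/well, were exposed to standard or sample for 4 h at 37° C in phenol-red-free DMEM with 10% FBS and 10 mM Hepes pH 7,4. Luminescence was read after 30 min with LucLite at room temperature.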

CC[C@H](C)[C@H](NC(=O)[C@@H]1CCCN1C(=O)CNC(=O)[C@H](Cc1ccccc1)NC(=O)[C@H](CC(N)=O)NC(=O)[C@H](CC(N)=O)NC(=O)[C@H](CO)NC(=O)[C@H](CO)NC(=O)[C@H](Cc1c[nH]cn1)NC(=O)[C@@H](NC(=O)[C@H](CC(C)C)NC(=O)[C@H](Cc1ccccc1)NC(=O)[C@H](CC(N)=O)NC(=O)[C@H](C)NC(=O)[C@H](CC(C)C)NC(=O)[C@H](CCCNC(=N)N)NC(=O)[C@H](CCC(N)=O)NC(=O)[C@@H](NC(=O)[C@H](C)NC(=O)[C@@H]1CSSC[C@H](NC(=O)[C@H](CCCCN)NC(=O)[C@H](CCCNC(=N)N)NC(=O)[C@H](CCCCN)NC(=O)[C@H](CCC(=O)O)NC(=O)CCCCCCCCCCCCCCCCCCC(=O)O)C(=O)N[C@@H](CC(N)=O)C(=O)N[C@@H]([C@@H](C)O)C(=O)N[C@@H](C)C(=O)N[C@@H]([C@@H](C)O)C(=O)N1)[C@@H](C)O)C(C)C)C(=O)N[C@@H](CC(C)C)C(=O)N1CCC[C@H]1C(=O)N1CCC[C@H]1C(=O)N[C@H](C(=O)N[C@@H](CC(N)=O)C(=O)N[C@H](C(=O)NCC(=O)N[C@@H](CO)C(=O)N[C@@H](CC(N)=O)C(=O)N[C@H](C(=O)N[C@@H](Cc1ccc(O)cc1)C(N)=O)[C@@H](C)O)C(C)C)[C@@H](C)O [Example 50, N-alpha-(19-carboxynonadecanoyl)-Glu-Lys-Arg-pramlintide (1-37)] ({C20 diacid}-EKRKCNTATCATQRLANFLVHSSNNFGPILPPTNVGSNTY-NH2; disulfide 5-10)
EC50: 0.08 nM

CC[C@H](C)[C@H](NC(=O)[C@@H]1CCCN1C(=O)CNC(=O)[C@H](Cc1ccccc1)NC(=O)[C@H](CC(N)=O)NC(=O)[C@H](CC(N)=O)NC(=O)[C@H](CO)NC(=O)[C@H](CO)NC(=O)[C@H](Cc1c[nH]cn1)NC(=O)[C@@H](NC(=O)[C@H](CC(C)C)NC(=O)[C@H](Cc1ccccc1)NC(=O)[C@H](CC(N)=O)NC(=O)[C@H](C)NC(=O)[C@H](CC(C)C)NC(=O)[C@H](CCCNC(=N)N)NC(=O)[C@H](CCC(N)=O)NC(=O)[C@@H](NC(=O)[C@H](C)NC(=O)[C@@H]1CSSC[C@H](NC(=O)[C@H](CCCNC(=N)N)NC(=O)[C@H](CCCCN)NC(=O)[C@H](CCC(=O)O)NC(=O)CCCCCCCCCCCCCCCCCCC(=O)O)C(=O)N[C@@H](CC(N)=O)C(=O)N[C@@H]([C@@H](C)O)C(=O)N[C@@H](C)C(=O)N[C@@H]([C@@H](C)O)C(=O)N1)[C@@H](C)O)C(C)C)C(=O)N[C@@H](CC(C)C)C(=O)N1CCC[C@H]1C(=O)N1CCC[C@H]1C(=O)N[C@H](C(=O)N[C@@H](CC(N)=O)C(=O)N[C@H](C(=O)NCC(=O)N[C@@H](CO)C(=O)N[C@@H](CC(N)=O)C(=O)N[C@H](C(=O)N[C@@H](Cc1ccc(O)cc1)C(N)=O)[C@@H](C)O)C(C)C)[C@@H](C)O [Example 51, N-alpha-(19-carboxynonadecanoyl)-Glu-Lys-[Arg1]-pramlintide (1-37)] ({C20 diacid}-EKRCNTATCATQRLANFLVHSSNNFGPILPPTNVGSNTY-NH2; disulfide 4-9; C-terminus assumed)
EC50: 0.07 nM

{C20 diacid}-EER[AEEA]ECNTATCATQRLANFLVHSSNNFGPILPPTNVGSNTY-NH2 (disulfide 6-11; C-terminus assumed) [Example 44, N-alpha-(2-{2-[2-((S)-2-{(S)-4-carboxy-2-[(S)-4-carboxy-2-(19-carboxynonadecanoylamino)butyrylamino]butyrylamino}-5-guanidinopentanoylamino)ethoxy]ethoxy}acetyl)-[Glu1]-pramlintide (1-37)]
EC50: 0.4 nM
